Source: paper PMC11397024, “Strategic Fluorination to Achieve a Potent, Selective, Metabolically Stable, and Orally Bioavailable Inhibitor of CSNK2” (Molecules, 2024)

Tests used:
Assay in all cases: NanoBRET K192
Format in all cases: cell-based
HIPK3 = target: T1, HIPK3 (Homo sapiens, UniProt Q9H422); conditions: HEK293
T1 construct: purchased Promega (NanoBRET Target Engagement K192 Kinase Selectivity System)
Summary of the method: (§1)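 HEK293 cells were transfected overnight with NanoLuc–kinase fusion vectors, then treated for 2 h at 37 °C with compound (added as 100 μM working solution) plus K10 tracer. BRET was read at 450/610 nm after substrate and extracellular inhibitor, and fractional occupancy was calculated against no-compound controls.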

TXK = target: T2, TXK (Homo sapiens, UniProt P42681); conditions: HEK293
T2 construct: host or cells: HEK293
T2 sequence (P42681 whole entry): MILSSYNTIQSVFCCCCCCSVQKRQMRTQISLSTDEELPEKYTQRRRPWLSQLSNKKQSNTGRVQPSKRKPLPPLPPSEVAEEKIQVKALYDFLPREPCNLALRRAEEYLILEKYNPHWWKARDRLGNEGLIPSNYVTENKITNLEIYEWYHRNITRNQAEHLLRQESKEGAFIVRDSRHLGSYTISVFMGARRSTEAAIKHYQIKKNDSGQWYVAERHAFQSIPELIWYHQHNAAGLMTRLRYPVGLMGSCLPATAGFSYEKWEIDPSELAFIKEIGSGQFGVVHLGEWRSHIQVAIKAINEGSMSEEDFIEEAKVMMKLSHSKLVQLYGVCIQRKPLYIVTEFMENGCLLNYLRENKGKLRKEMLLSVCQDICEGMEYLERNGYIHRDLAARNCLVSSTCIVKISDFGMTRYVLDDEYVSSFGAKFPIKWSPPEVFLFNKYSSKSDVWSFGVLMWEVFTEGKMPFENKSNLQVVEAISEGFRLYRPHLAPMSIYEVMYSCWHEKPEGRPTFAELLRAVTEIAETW
Summary of the method: as §1

SNF1LK2 = target: T3, SNF1LK2 (Homo sapiens, UniProt Q9H0K1); conditions: HEK293
T3 construct: host or cells: HEK293
T3 sequence (Q9H0K1 whole entry): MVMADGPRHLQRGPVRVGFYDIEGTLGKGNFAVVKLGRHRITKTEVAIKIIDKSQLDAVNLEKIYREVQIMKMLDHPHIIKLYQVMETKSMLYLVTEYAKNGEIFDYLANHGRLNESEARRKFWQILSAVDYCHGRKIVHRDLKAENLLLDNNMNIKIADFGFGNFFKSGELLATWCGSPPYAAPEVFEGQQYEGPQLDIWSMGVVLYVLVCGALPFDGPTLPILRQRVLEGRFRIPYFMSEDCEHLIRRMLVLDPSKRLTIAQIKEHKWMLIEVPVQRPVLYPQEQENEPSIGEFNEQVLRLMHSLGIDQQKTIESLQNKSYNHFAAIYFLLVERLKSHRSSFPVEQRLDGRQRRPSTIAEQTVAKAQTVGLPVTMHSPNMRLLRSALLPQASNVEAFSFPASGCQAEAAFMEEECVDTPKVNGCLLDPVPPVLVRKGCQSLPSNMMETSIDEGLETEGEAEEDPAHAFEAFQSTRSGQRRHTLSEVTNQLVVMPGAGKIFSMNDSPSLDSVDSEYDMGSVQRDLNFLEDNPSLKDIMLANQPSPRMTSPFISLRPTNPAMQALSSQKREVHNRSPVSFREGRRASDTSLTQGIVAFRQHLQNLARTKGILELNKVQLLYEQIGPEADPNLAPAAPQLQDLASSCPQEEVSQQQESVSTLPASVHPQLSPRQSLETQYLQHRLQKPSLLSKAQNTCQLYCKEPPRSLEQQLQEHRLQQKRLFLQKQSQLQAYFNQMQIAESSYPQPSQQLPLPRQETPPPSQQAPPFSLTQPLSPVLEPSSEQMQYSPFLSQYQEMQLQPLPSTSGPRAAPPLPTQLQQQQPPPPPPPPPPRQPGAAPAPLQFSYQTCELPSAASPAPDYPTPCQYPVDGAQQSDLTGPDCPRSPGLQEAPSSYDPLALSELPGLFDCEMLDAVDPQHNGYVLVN
Summary of the method: as §1

PTK6 = target: T4, PTK6 (Homo sapiens, UniProt Q13882); conditions: HEK293
T4 construct: purchased Promega (NanoBRET Target Engagement K192 Kinase Selectivity System)
Summary of the method: as §1

JAK2 (V617F) = target: T5, JAK2 (V617F) (Homo sapiens, UniProt O60674, V617F); conditions: HEK293
T5 construct: purchased Promega (NanoBRET Target Engagement K192 Kinase Selectivity System)
Summary of the method: as §1

ERN1 = target: T6, ERN1 (Homo sapiens, UniProt O75460); conditions: HEK293
T6 construct: purchased Promega (NanoBRET Target Engagement K192 Kinase Selectivity System)
Summary of the method: as §1

STK38 = target: T7, STK38 (Homo sapiens, UniProt Q15208); conditions: HEK293
T7 construct: purchased Promega (NanoBRET Target Engagement K192 Kinase Selectivity System)
Summary of the method: as §1

PRKACB = target: T8, PRKACB (Homo sapiens, UniProt P22694); conditions: HEK293
T8 construct: purchased Promega (NanoBRET Target Engagement K192 Kinase Selectivity System)
Summary of the method: as §1

MARK2 = target: T9, MARK2 (Homo sapiens, UniProt Q7KZI7); conditions: HEK293
T9 construct: purchased Promega (NanoBRET Target Engagement K192 Kinase Selectivity System)
Summary of the method: as §1

AURK A = target: T10, AURK A (Homo sapiens, UniProt O14965); conditions: HEK293
T10 construct: host or cells: HEK293
Summary of the method: as §1

EPHB4 = target: T11, EPHB4 (Homo sapiens, UniProt P54760); conditions: HEK293
T11 construct: purchased Promega (NanoBRET Target Engagement K192 Kinase Selectivity System)
Summary of the method: as §1

SBK3 = target: T12, SBK3 (Homo sapiens, UniProt P0C264); conditions: HEK293
T12 construct: purchased Promega (NanoBRET Target Engagement K192 Kinase Selectivity System)
T12 sequence (P0C264 whole entry): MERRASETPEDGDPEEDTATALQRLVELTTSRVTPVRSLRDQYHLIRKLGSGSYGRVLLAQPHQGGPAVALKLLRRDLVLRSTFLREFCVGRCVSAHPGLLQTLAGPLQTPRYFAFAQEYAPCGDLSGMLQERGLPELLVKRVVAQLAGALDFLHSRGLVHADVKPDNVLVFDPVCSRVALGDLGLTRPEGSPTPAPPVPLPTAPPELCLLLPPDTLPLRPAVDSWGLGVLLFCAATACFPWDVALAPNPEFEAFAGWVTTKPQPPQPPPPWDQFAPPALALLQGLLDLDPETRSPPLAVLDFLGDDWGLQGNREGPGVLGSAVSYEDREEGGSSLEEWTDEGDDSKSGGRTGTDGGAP
Summary of the method: as §1

STK17B = target: T13, STK17B (Homo sapiens, UniProt O94768); conditions: HEK293
T13 construct: purchased Promega (NanoBRET Target Engagement K192 Kinase Selectivity System)
Summary of the method: as §1

IRAK3 = target: T14, IRAK3 (Homo sapiens, UniProt Q9Y616); conditions: HEK293
T14 construct: purchased Promega (NanoBRET Target Engagement K192 Kinase Selectivity System)
Summary of the method: as §1

EPHA6 = target: T15, EPHA6 (Homo sapiens, UniProt Q9UF33); conditions: HEK293
T15 construct: purchased Promega (NanoBRET Target Engagement K192 Kinase Selectivity System)
Summary of the method: as §1

CSNK2A1 = target: T16, CSNK2A1 (Homo sapiens, UniProt P68400)
T16 construct: expressed in transfected cells; host or cells: HEK293
T16 sequence (P68400 whole entry): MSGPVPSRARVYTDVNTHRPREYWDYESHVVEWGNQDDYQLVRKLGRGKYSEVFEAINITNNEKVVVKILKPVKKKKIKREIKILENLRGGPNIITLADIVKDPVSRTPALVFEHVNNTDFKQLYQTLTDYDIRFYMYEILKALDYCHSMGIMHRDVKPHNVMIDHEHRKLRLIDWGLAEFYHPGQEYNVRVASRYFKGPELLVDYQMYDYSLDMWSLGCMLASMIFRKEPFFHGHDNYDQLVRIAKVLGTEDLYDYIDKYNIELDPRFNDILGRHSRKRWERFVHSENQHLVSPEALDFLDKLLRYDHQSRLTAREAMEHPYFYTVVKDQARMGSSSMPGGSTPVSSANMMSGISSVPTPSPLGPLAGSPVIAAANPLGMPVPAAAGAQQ
Summary of the method: as §1

MAP4K3 = target: T17, MAP4K3 (Homo sapiens, UniProt Q8IVH8); conditions: HEK293
T17 construct: purchased Promega (NanoBRET Target Engagement K192 Kinase Selectivity System)
T17 sequence (Q8IVH8 whole entry): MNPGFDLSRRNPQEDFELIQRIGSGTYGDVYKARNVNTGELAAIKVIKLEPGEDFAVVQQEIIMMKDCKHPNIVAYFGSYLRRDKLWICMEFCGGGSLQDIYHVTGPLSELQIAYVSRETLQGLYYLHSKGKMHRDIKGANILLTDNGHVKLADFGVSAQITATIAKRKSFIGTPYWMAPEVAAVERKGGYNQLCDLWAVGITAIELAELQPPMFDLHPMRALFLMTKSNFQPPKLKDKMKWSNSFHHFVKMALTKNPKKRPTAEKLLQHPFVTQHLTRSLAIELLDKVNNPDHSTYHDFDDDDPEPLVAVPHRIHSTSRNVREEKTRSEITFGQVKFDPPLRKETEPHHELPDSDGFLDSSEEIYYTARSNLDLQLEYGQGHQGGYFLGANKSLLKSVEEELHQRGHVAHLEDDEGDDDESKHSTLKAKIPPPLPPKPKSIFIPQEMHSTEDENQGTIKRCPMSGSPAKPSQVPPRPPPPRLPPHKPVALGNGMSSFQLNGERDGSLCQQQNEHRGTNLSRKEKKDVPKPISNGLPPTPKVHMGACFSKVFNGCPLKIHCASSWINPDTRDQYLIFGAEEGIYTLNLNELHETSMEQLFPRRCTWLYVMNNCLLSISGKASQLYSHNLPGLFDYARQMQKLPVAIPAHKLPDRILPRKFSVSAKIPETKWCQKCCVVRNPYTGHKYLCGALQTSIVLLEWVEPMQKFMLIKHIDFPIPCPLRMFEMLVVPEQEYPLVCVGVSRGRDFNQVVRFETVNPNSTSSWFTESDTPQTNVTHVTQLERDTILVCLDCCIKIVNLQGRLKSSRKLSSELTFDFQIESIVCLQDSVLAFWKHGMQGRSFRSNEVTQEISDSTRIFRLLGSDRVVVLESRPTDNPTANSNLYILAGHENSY
Summary of the method: as §1

BMX = target: T18, BMX (Homo sapiens, UniProt P51813); conditions: HEK293
T18 construct: purchased Promega (NanoBRET Target Engagement K192 Kinase Selectivity System)
Summary of the method: as §1

INSR = target: T19, INSR (Homo sapiens, UniProt P06213); conditions: HEK293
T19 construct: purchased Promega (NanoBRET Target Engagement K192 Kinase Selectivity System)
Summary of the method: as §1

FGFR1 = target: T20, FGFR1 (Homo sapiens, UniProt P11362); conditions: HEK293
T20 construct: purchased Promega (NanoBRET Target Engagement K192 Kinase Selectivity System)
T20 sequence (P11362 22-822): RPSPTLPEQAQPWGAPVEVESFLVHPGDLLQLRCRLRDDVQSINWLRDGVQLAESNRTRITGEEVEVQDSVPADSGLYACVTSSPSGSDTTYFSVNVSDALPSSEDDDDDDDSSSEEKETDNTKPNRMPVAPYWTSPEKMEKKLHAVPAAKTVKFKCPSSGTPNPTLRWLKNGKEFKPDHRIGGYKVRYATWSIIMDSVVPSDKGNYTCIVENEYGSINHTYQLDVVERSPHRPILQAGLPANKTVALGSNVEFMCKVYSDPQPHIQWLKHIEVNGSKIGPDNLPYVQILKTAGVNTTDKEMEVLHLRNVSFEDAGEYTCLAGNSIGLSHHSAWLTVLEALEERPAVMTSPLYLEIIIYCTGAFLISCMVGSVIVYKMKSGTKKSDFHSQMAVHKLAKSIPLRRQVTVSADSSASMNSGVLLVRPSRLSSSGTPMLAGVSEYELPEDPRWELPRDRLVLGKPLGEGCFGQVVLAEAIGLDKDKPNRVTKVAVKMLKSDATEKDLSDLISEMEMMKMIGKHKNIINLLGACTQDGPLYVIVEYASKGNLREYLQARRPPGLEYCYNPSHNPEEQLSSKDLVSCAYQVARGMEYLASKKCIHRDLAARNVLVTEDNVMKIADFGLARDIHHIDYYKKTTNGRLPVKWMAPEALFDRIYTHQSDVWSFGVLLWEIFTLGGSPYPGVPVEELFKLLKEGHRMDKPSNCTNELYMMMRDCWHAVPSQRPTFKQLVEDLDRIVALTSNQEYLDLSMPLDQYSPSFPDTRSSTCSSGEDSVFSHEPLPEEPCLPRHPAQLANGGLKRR
Summary of the method: as §1

NLK = target: T21, NLK (Homo sapiens, UniProt Q9UBE8); conditions: HEK293
T21 construct: purchased Promega (NanoBRET Target Engagement K192 Kinase Selectivity System)
Summary of the method: as §1

EPHA4 = target: T22, EPHA4 (Homo sapiens, UniProt P54764); conditions: HEK293
T22 construct: purchased Promega (NanoBRET Target Engagement K192 Kinase Selectivity System)
T22 sequence (P54764 20-986): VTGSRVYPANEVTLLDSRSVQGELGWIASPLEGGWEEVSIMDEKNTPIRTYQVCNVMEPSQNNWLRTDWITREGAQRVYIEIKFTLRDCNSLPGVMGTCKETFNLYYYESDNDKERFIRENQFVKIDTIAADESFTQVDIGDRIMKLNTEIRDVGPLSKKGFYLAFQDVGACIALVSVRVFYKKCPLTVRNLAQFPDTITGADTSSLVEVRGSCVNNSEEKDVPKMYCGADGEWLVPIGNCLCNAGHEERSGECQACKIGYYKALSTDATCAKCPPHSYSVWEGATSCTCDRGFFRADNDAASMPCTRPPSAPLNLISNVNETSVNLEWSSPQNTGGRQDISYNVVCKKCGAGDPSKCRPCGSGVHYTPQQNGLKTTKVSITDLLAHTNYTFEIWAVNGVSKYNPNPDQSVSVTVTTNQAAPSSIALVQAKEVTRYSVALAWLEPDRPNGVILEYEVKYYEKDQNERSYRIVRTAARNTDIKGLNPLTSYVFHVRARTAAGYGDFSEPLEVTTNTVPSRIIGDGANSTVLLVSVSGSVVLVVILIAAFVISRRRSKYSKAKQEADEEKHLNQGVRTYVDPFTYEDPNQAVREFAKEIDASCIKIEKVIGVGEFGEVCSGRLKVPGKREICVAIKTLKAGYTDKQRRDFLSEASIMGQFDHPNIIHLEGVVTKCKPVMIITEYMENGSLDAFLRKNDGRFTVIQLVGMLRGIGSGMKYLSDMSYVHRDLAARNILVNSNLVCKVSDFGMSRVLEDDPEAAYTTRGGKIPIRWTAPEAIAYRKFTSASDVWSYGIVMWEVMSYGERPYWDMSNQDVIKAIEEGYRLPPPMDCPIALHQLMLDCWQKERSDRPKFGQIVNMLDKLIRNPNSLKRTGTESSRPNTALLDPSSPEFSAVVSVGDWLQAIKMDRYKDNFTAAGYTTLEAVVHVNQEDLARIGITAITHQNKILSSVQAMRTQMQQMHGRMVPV
Summary of the method: as §1

CDKL3 = target: T23, CDKL3 (Homo sapiens, UniProt Q8IVW4); conditions: HEK293
T23 construct: purchased Promega (NanoBRET Target Engagement K192 Kinase Selectivity System)
Summary of the method: as §1

STK38L = target: T24, STK38L (Homo sapiens, UniProt Q9Y2H1); conditions: HEK293
T24 construct: purchased Promega (NanoBRET Target Engagement K192 Kinase Selectivity System)
Summary of the method: as §1

DYRK1A = target: T25, DYRK1A (Homo sapiens, UniProt Q13627)
T25 construct: purchased Promega (NanoBRET Target Engagement K192 Kinase Selectivity System)
Summary of the method: as §1

JAK3 = target: T26, JAK3 (Homo sapiens, UniProt P52333); conditions: HEK293
T26 construct: purchased Promega (NanoBRET Target Engagement K192 Kinase Selectivity System)
Summary of the method: as §1

FYN = target: T27, FYN (Homo sapiens, UniProt P06241); conditions: HEK293
T27 construct: purchased Promega (NanoBRET Target Engagement K192 Kinase Selectivity System)
Summary of the method: as §1

CCC(=O)Nc1cc(Nc2cc(NC3CC3)n3ncc(C#N)c3n2)c(F)cc1N1CCC[C@H](NC)C1 [Compound 2, (S)-N-(5-((3-cyano-7-(cyclopropylamino)pyrazolo[1,5-a]pyrimidin-5-yl)amino)-4-fluoro-2-(3-(methylamino)piperidin-1-yl)phenyl)propionamide]
receptor occupancy at 10 µM (HIPK3): 25.5%
receptor occupancy at 10 µM (TXK): -3.2%
receptor occupancy at 10 µM (SNF1LK2): -4.8%
receptor occupancy at 10 µM (PTK6): 4.4%
receptor occupancy at 10 µM (JAK2 (V617F)): 13.1%
receptor occupancy at 10 µM (ERN1): 3%
receptor occupancy at 10 µM (STK38): -0.8%
receptor occupancy at 10 µM (PRKACB): 9.2%
receptor occupancy at 10 µM (MARK2): 14.2%
receptor occupancy at 10 µM (AURK A): -9.3%
receptor occupancy at 10 µM (EPHB4): 4.4%
receptor occupancy at 10 µM (SBK3): 15.9%
receptor occupancy at 10 µM (STK17B): 45.5%
receptor occupancy at 10 µM (IRAK3): 2.4%
receptor occupancy at 10 µM (EPHA6): 7.3%
% occupancy at 10 μM (CSNK2A1; CSNK2A1, HEK293): 97%
receptor occupancy at 10 µM (CSNK2A1; HEK293, CSNK2A1): 97.3%
receptor occupancy at 10 µM (MAP4K3): 2.9%
receptor occupancy at 10 µM (BMX): 0.6%
receptor occupancy at 10 µM (INSR): 1.2%
receptor occupancy at 10 µM (FGFR1): 10.4%
receptor occupancy at 10 µM (NLK): 11.9%
receptor occupancy at 10 µM (EPHA4): 7.8%
receptor occupancy at 10 µM (CDKL3): 19.4%
receptor occupancy at 10 µM (STK38L): 4%
% occupancy at 10 μM (DYRK1A; DYRK1A, HEK293): 71%
receptor occupancy at 10 µM (DYRK1A; HEK293, DYRK1A): 71.2%
receptor occupancy at 10 µM (JAK3): 4.6%
receptor occupancy at 10 µM (FYN): 18.1%
